# How the values were obtained:
# male Sprague-Dawley rats [1] = conditions: subcutaneous; MPA 10 mg
# Description: Each data point is the Mean±SEM of samples obtained from 6 different rats. Bars indicate progestogenic activity of original MPA and L.C. extract in-vitro. Progestogenic activity is expressed as fold increase compared to cells exposed to vehicle only.
# male Sprague-Dawley rats [2] = test system: male Sprague-Dawley rats
# Method: Sprague-Dawley rats were fasted overnight. Two mls of L.C. (2 g), MPA (10 mg) and vehicle (60% Ethanol) were orally fed to male rats using gavage tubes. Serum samples were collected from the tail vein at indicated time points, before and after L.C. administration. Bioactive progestogens were extracted from serum and tested for progestogenic activity using our receptor-based bioassay. Each data point is the Mean±SEM of samples obtained from 6 different rats. Bars indicate progestogenic activity of original MPA and L.C. extract in-vitro. Progestogenic activity is expressed as fold increase compared to cells exposed to vehicle only.
# To determine the pharmacokinetics and bioequivalence of LC, we measured the progestogenic effect of rat serum sampled at defined time points after oral doses of LC (2 g/2 ml), MPA (10 mg/2 ml), and vehicle only (2 ml 60% ethanol). Serum samples were extracted and progesterone effect measured as in Example 12.
# [3] = test system: subjects with transient ischemic attack; conditions: cited from earlier work
# [4] = biological target: T1, human progesterone receptor (PR-B) (Homo sapiens, UniProt P06401); test: cell-based progesterone reporter gene assay (PR-B + PRE2-TATA-LUC luciferase) in HeLa cells; conditions: peak activity at 10 μM
# T1 construct: DNA encoding the full length human progesterone receptor (PR-B); expressed in transfected cells; host or cells: HeLa cells
# T1 sequence (P06401 1-933): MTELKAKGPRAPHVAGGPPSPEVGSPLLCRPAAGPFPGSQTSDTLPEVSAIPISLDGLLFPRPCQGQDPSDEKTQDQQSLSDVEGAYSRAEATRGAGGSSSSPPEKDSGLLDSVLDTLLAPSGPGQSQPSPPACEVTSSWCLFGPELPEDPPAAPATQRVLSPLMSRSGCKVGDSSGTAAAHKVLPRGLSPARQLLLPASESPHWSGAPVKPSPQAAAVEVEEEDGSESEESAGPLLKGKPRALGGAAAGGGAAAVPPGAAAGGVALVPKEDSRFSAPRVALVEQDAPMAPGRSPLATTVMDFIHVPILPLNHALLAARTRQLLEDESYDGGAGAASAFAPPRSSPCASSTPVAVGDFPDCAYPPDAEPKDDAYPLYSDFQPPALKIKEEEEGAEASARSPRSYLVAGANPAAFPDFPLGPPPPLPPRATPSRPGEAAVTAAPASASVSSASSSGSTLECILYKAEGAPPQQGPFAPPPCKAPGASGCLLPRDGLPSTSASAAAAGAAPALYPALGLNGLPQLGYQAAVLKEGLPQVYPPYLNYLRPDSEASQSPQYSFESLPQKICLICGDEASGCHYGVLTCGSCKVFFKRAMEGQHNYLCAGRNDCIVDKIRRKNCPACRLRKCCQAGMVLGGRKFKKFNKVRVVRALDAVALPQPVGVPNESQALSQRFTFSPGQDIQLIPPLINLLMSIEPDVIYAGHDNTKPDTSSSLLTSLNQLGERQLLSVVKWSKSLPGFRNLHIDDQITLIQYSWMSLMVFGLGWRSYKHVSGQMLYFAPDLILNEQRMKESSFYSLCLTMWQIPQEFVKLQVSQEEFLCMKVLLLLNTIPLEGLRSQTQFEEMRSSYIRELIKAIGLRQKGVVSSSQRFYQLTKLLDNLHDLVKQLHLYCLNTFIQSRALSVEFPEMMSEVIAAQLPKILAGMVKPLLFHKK
# Description: In the progestogen receptor assay of the invention, HeLa cells grown in 24-well microtiter plates were transiently co-transfected with two plasmids using lipofectamine. The first plasmid consisted of DNA encoding the full length human progesterone receptor (PR-B), and the second a progesterone reporter gene (PRE2-TATA-LUC) comprising a luciferase reporter gene driven by two copies of the progesterone response element from the aminotransferase gene. […] Replicate wells were exposed to vehicle only (ethanol) and used as negative controls. After the period of incubation, cells were rinsed with PBS buffer, lysis buffer (Promega Corp) was added, and cell lysates collected for measurement of luciferase activity. Progestogenic activity of the ligands was expressed as fold-increase in luciferase activity compared with control cells exposed to vehicle only. All data points were in triplicate. […] To begin the search for phyto-progestogens in Traditional Chinese herbal medicines, The Pharmacopoeia of the People's Republic of China (1997) was consulted and 13 herbs reported to have “uterotonic activity” were selected for screening. […] The herbal residues were re-extracted a second time with the same solvent for 2-3 hours. […] Dried extracts were weighed and re-suspended in 100% ethanol or methanol to a concentration 50 mg/ml.
# [5] = test system: patients with acute cerebral infarction; conditions: cited from earlier work
molecule,measurement,setting,value
"CC(=O)O[C@]1(C(C)=O)CC[C@H]2[C@@H]3C[C@H](C)C4=CC(=O)CC[C@]4(C)[C@H]3CC[C@@]21C [MPA, 6α-methyl-17α-hydroxy-progesterone acetate]",peak progestogenic activity versus serum from rats administered vehicle only,male Sprague-Dawley rats [1],about 5 fold
same,maintenance of peak / high levels of progestogenic effect,"male Sprague-Dawley rats [2]; male, Sprague-Dawley, rat, in vivo, po",maintained throughout the 24 hour of sampling
same,peak progesterone activity in words,male Sprague-Dawley rats [2]; oral,comparable to that observed with saturating doses of progesterone in-vitro
same,serum activity versus baseline of rats administered vehicle only,"male Sprague-Dawley rats [2]; oral, MPA 10 mg/2 ml",about 5 fold
CC(=O)Oc1ccccc1C(=O)O [aspirin],total effective rate,[3],61.7%
CC(=O)O[C@]1(C(C)=O)CC[C@H]2[C@@H]3C=C(C)C4=CC(=O)CC[C@]4(C)[C@H]3CC[C@@]21C [megesterol acetate],increase in hormonal activity over controls exposed to vehicle only at peak activity,[4],300 fold
CC(=O)[C@H]1CC[C@H]2[C@@H]3CCC4=CC(=O)CC[C@]4(C)[C@H]3CC[C@]12C [progesterone],increase in hormonal activity over controls exposed to vehicle only at peak activity,[4],300 fold
dextran 40,total therapeutic efficacy rate,[5],62.8%

# — patent publication US20090053338A1, “Method for the preparation of phytoprogestogenic extracts from rhizoma ligusticum chuanxiong and uses thereof” (priority 2003, published 2009)
